Experimental data as given in patent publication US5428041A, “Antihypercholesterolemic bis-trifluoromethyl-substituted imidazolines and derivatives thereof” (The Du Pont Merck Pharmaceutical Company, priority 1992, dated 1995).
Where a name gives a salt, the structure may show the parent alone.

Experiments:
[1] = Water solubility of polymorphs; format: physicochemical; conditions: compared with the higher melting polymorph
ACAT = assay: Systemic ACAT inhibitory activity; format: in vivo; conditions: oral, compared to the higher melting form
[2] = Oral bioavailability of polymorphs; format: in vivo; conditions: compared to the higher melting form
[3] = system: murine macrophage-like cell line J744.A1; assay: Inhibition of cholesterol esterification in mammalian cells (macrophage); format: cell-based; conditions: Mus musculus; J744.A1 macrophage-like cells loaded with ac-LDL, 14C oleic acid
Experimental: B. Assay of the Inhibition of Cholesterol Esterification in Mammalian Cells The esterification of cholesterol was determined in the murine macrophage-like cell line J744.A1. Cells were seeded in 35 mm wells at a density of 300,000 cells per well in 2 mls of Dulbecco's Modified Eagle Medium (DMEM) supplemented with 10% fetal bovine serum (FBS). Cells were incubated at 37° C. in an atmosphere of 5% CO2 and 93% humidity. After 24 hours the media was changed to 0.68 mls 10% FBS-DMEM containing 34 μg of acetylated human low density lipoprotein (ac-LDL) to increase the intracellular concentration of cholesterol and promote esterification. At 41 hours, various inhibitors were added to the cells in DMSO (10 μl/ml maximum). At 43 hours, the cells were pulsed with 0.1 mM ^14 C oleic acid (10,000 dpm/nmol) complexed with BSA (bovine serum albumin) to follow cholesterol ester formation. The experiment was terminated at 45 hours by washing the monolayers 3 times with 3 ml of Tris-buffered saline at 4° C. The lipids were extracted by incubating the monolayers with 1.5 ml of hexane: isopropanol (3:2, v/v) for 30 min. under gentle agitation. During this period, 10,000 dpm ^3 H-cholesteryl linoleate and 10 μg of cholesteryl oleate were added as an internal standard and carrier respectively. The organic solvent was remoted and the cells were washed with an additional 1.0 ml of hexane: isopropanol which was combined with the original extract. The cells were allowed to dry overnight, digested with 1.5 ml of 0.2 N sodium hydroxide for 1 hour and an aliquot of the solubilized protein used for protein determination using the Lowry method. […] Individual lipids were visualized with iodine and the cholesteryl ester spot cut out and transferred to scintillation vials to determine the amount of radioactivity.

[4] = target: T1, Acyl-CoA: Cholesterol Acyltransferase (ACAT) (Rattus norvegicus, UniProt Q7TQM4); assay: Inhibition of Acyl-CoA:Cholesterol Acyltransferase (ACAT) in hepatic microsomes; format: biochemical, Sprague Dawley rat; conditions: rat hepatic microsomes, 14C-oleoyl-CoA, 37° C., pH 7.4; read-out: In Vitro ACAT IC50
T1 construct: centrifuged at 105,000×g for 1 hour to pellet the microsomes; from tissue; host or cells: liver microsomes of fasted male Sprague Dawley rats
T1 sequence (Q7TQM4 1-524): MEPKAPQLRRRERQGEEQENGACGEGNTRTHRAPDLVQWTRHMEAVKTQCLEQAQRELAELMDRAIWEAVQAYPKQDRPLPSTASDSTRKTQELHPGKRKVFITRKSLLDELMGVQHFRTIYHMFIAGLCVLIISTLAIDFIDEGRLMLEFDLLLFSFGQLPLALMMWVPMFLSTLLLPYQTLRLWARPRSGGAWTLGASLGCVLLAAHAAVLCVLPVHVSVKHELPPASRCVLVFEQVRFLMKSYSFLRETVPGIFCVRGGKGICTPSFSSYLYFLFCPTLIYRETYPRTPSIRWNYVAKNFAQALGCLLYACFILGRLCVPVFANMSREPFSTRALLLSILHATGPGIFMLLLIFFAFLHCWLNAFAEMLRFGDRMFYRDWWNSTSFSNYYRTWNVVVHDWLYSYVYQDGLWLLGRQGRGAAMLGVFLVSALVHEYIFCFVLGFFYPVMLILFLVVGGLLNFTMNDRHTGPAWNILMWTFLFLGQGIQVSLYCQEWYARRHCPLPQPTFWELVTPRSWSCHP
Experimental: A. Assay of the Inhibition of Acyl-CoA: Cholesterol Acyltransferase (ACAT) in Hepatic Microsomes
The ability of the compounds to inhibit ACAT, the enzyme responsible for the intracellular synthesis of cholesteryl esters, was tested as follows. Male Sprague Dawley rates weighing 150-300 g were fed rat chow ad libitum. The animals were fasted for twenty-four hours prior to being sacrificed by decapitation. The livers were perfused in situ with 50 ml of cold 0.25M sucrose, excised and homogenized in three volumes of 0.1M phosphate buffer, pH 7.4, that contained 0.5 mM EDTA (ethylenediaminetetraacetic acid), 1.0 mM glutathione, 0.25M sucrose and 20 mM leupeptin. Microsomes were obtained by differential centrifugation; the supernatant from an initial spin at 15,000×g for 15 minutes was centrifuged at 105,000×g for 1 hour to pellet the microsomes. The microsomes were suspended in homogenization buffer, reisolated by centrifugation, and stored at -70° C. Microsomes were used within one month of preparation.
The control assay in a final volume of 200 μl consisted of 200 μg of microsomal protein, 75 μM ^14 C-oleoyl-CoA (10,000 dpm/nmol) in 0.1M phosphate, pH 7.4, that contained 1 mM glutathione. Compounds were added in 5-10 μl of DMSO (dimethyl sulfoxide or ethanol) and additional controls were run with DMSO or ethanol only. All components, except the oleoyl-CoA, were preincubated for 15 min. at 37° C. prior to the initiation of the reaction by the addition of oleoyl CoA. The assay was terminated after 10 min by the addition of 4 ml of chloroform:methanol (2:1, v/v). 20,000 dpm of ^3 H-cholesteryl oleate and 10 μg of unlabeled cholesteryl oleate and oleic acid were added as an internal standard and carrier, respectively. After allowing 10 min. for lipid extraction, 0.8 ml of deionized water was added to separate the solution into two phases. The lower chloroform phase was collected, dried under nitrogen and resuspended in 100 μl of chloroform. The sample containing the neutral lipids was spotted onto a Gelman ITLC-SA polysilicic acid gel-impregnated sheet, which was developed using a hexane: diethyl ether: acetic acid (170:30:1 v/v/v) mobile phase. The lipids were visualized by their interaction with iodine vapor and the cholesteryl ester spot was scraped into a scintillation vial and counted. The specific activity of ACAT in the control incubation averaged 260 pmol/min/mg microsomal protein. The inhibition of ACAT activity by the compounds is shown in Table 7; the data are expressed as the concentration at which ACAT activity is inhibited by 50% (IC50).

IC50 [3] [µM]	IC50 [4] [µM]	Compound	water solubility relative to the 181°-183° C. melting polymorph [1] [fold]	systemic ACAT inhibitory activity (ACAT)	oral bioavailability [2]
		CN(C(=O)c1ccc(C#N)cc1)C1N(C)C(c2ccc(C#N)cc2)=NC1(C(F)(F)F)C(F)(F)F (stereo not drawn) [132°-134° melting polymorph, N-[4,4-bis[trifluoromethyl)-4,5-dihydro-1-methyl-2-[4-cyanophenyl]-1H-imidazol-5-yl]-N-methyl-4-cyanobenzamide]	3	improved systemic ACAT inhibitory activity	greater oral bioavailability
16	3	CC(C)c1ccc(NC(=O)N(C)C2N(C)C(c3ccc(F)cc3)=NC2(C(F)(F)F)C(F)(F)F)cc1 (stereo not drawn) [Example 27, N-[4,4-bis(trifluoromethyl)-2-(4-fluorophenyl)-4,5-dihydro-1-methyl-1H-imidazol-5-yl]-N'-4-isopropylphenyl-N-methylurea]			
13	10	CN1C(c2ccc(F)cc2)=NC(C(F)(F)F)(C(F)(F)F)C1NC(=O)c1ccc(N2CCCCC2)cc1 (stereo not drawn) [Example 31, N-[4,4-bis(trifluoromethyl)-2-(4-fluorophenyl)-4,5-dihydro-1-methyl-1H-imidazol-5-yl]-4-(1-piperidinyl) benzamide]			
17	2	CN1C(c2ccc(N3CCCCC3)cc2)=NC(C(F)(F)F)(C(F)(F)F)C1NC(=O)c1ccc(F)cc1 (stereo not drawn) [Example 32, N-[4,4-bis(trifluoromethyl)-4,5-dihydro-1-methyl-2-[4-(1-piperidinyl)phenyl]-1H-imidazol-5-yl]-4-fluorobenzamide]			
13	10	CCCCCCC(=O)N(C)C1N(C)C(c2ccc(N3CCCCC3)cc2)=NC1(C(F)(F)F)C(F)(F)F (stereo not drawn) [Example 33, N-[4,4-bis(trifluoromethyl)-4,5-dihydro-1-methyl-2-[4-(1-piperidinyl)phenyl]-1H-imidazol-5-yl]-N-methylheptanamide, hydrochloride]			
34	1.91	CN(C(=O)c1ccc(F)cc1)C1N(C)C(c2ccc(C#N)cc2)=NC1(C(F)(F)F)C(F)(F)F (stereo not drawn) [Example Q, N-[4,4-bis(trifluoromethyl)-2-(4-cyanophenyl)-4,5-dihydro-1-methyl-1H-imidazol-5-yl]-N-methyl-4-fluorobenzamide]			

Compound	IC50 [3] [µM]	IC50 [4] [µM]	water solubility relative to the 181°-183° C. melting polymorph [1] [fold]	systemic ACAT inhibitory activity (ACAT)	oral bioavailability [2]
CN(C(=O)c1ccc(C#N)cc1)C1N(C)C(c2ccc(C#N)cc2)=NC1(C(F)(F)F)C(F)(F)F (stereo not drawn) [Example R, N-[4,4-bis(trifluoromethyl)-4,5-dihydro-1-methyl-2-[4-cyanophenyl]-1H-imidazol-5-yl]-N-methyl-4-cyanobenzamide]	13	2			
